Experiment: xn = mol fraction of the nth substance listed
Conditions: Fluid (supercritical or subcritical phases), x1 = 0.97; for mass density: Vibrating tube method; for speed of sound: 293.13 K, Frequency=5 MHz, Pulse-echo method

O=C=O [carbon dioxide] + CO
Conditions | mass density [kg/m3]
283.15 K, 16550 kPa | 963.02
283.15 K, 16575 kPa | 963.18
283.15 K, 16600 kPa | 963.26
283.15 K, 16625 kPa | 963.43
283.15 K, 16650 kPa | 963.51
283.15 K, 16675 kPa | 963.66
283.15 K, 16700 kPa | 963.77
283.15 K, 16725 kPa | 963.92
283.15 K, 16750 kPa | 964
283.15 K, 16775 kPa | 964.16
283.15 K, 16800 kPa | 964.28
283.15 K, 16825 kPa | 964.4
283.15 K, 16850 kPa | 964.49
283.15 K, 16875 kPa | 964.65
283.15 K, 16900 kPa | 964.79
283.15 K, 16925 kPa | 964.88
283.15 K, 16950 kPa | 964.99
283.15 K, 16975 kPa | 965.14
283.15 K, 17000 kPa | 965.28
283.15 K, 17025 kPa | 965.37
283.15 K, 17050 kPa | 965.46
283.15 K, 17075 kPa | 965.62
283.15 K, 17100 kPa | 965.75
283.15 K, 17125 kPa | 965.87
283.15 K, 17150 kPa | 965.97
283.15 K, 17175 kPa | 966.11
283.15 K, 17200 kPa | 966.25
283.15 K, 17225 kPa | 966.36
283.15 K, 17250 kPa | 966.51
283.15 K, 17275 kPa | 966.6
283.15 K, 17300 kPa | 966.7
283.15 K, 17325 kPa | 966.85
283.15 K, 17350 kPa | 966.97
283.15 K, 17375 kPa | 967.09
283.15 K, 17400 kPa | 967.17
283.15 K, 17425 kPa | 967.31
283.15 K, 17450 kPa | 967.41
283.15 K, 17475 kPa | 967.57
283.15 K, 17500 kPa | 967.66
283.15 K, 17525 kPa | 967.82
283.15 K, 17550 kPa | 967.9
283.15 K, 17575 kPa | 968.06
283.15 K, 17600 kPa | 968.15
283.15 K, 17625 kPa | 968.24
283.15 K, 17650 kPa | 968.4
283.15 K, 17675 kPa | 968.48
283.15 K, 17700 kPa | 968.64
283.15 K, 17725 kPa | 968.78
283.15 K, 17750 kPa | 968.88
283.15 K, 17775 kPa | 968.98
283.15 K, 17800 kPa | 969.12
283.15 K, 17825 kPa | 969.25
283.15 K, 17850 kPa | 969.37
283.15 K, 17875 kPa | 969.46
283.15 K, 17900 kPa | 969.6
283.15 K, 17925 kPa | 969.69
283.15 K, 17950 kPa | 969.8
283.15 K, 17975 kPa | 969.94
283.15 K, 18000 kPa | 970.08
283.15 K, 18025 kPa | 970.18
283.15 K, 18050 kPa | 970.31
283.15 K, 18075 kPa | 970.43
283.15 K, 18100 kPa | 970.52
283.15 K, 18125 kPa | 970.66
283.15 K, 18150 kPa | 970.8
283.15 K, 18175 kPa | 970.91
283.15 K, 18200 kPa | 970.99
283.15 K, 18225 kPa | 971.16
283.15 K, 18250 kPa | 971.25
283.15 K, 18275 kPa | 971.39
283.15 K, 18300 kPa | 971.48
283.15 K, 18325 kPa | 971.57
283.15 K, 18350 kPa | 971.73
283.15 K, 18375 kPa | 971.85
283.15 K, 18400 kPa | 971.98
283.15 K, 18425 kPa | 972.05
283.15 K, 18450 kPa | 972.17
283.15 K, 18475 kPa | 972.3
283.15 K, 18500 kPa | 972.43
283.15 K, 18525 kPa | 972.54
283.15 K, 18550 kPa | 972.62
283.15 K, 18575 kPa | 972.76
283.15 K, 18600 kPa | 972.9
283.15 K, 18625 kPa | 973.03
283.15 K, 18650 kPa | 973.11
283.15 K, 18675 kPa | 973.21
283.15 K, 18700 kPa | 973.35
283.15 K, 18725 kPa | 973.46
283.15 K, 18750 kPa | 973.6
283.15 K, 18775 kPa | 973.72
283.15 K, 18800 kPa | 973.84
283.15 K, 18825 kPa | 973.96
283.15 K, 18850 kPa | 974.07
283.15 K, 18875 kPa | 974.17
283.15 K, 18900 kPa | 974.28
283.15 K, 18925 kPa | 974.41
283.15 K, 18950 kPa | 974.55
283.15 K, 18975 kPa | 974.63
283.15 K, 19000 kPa | 974.74
283.15 K, 19025 kPa | 974.9
283.15 K, 19050 kPa | 974.98
283.15 K, 19075 kPa | 975.08
283.15 K, 19100 kPa | 975.18
283.15 K, 19125 kPa | 975.31
283.15 K, 19150 kPa | 975.44
283.15 K, 19175 kPa | 975.52
283.15 K, 19200 kPa | 975.66
283.15 K, 19225 kPa | 975.76
283.15 K, 19250 kPa | 975.85
283.15 K, 19275 kPa | 976.02
283.15 K, 19300 kPa | 976.1
283.15 K, 19325 kPa | 976.18
283.15 K, 19350 kPa | 976.34
283.15 K, 19375 kPa | 976.42
283.15 K, 19400 kPa | 976.53
283.15 K, 19425 kPa | 976.66
283.15 K, 19450 kPa | 976.74
283.15 K, 19475 kPa | 976.85
283.15 K, 19500 kPa | 976.99
283.15 K, 19525 kPa | 977.1
283.15 K, 19550 kPa | 977.22
283.15 K, 19575 kPa | 977.29
283.15 K, 19600 kPa | 977.43
283.15 K, 19625 kPa | 977.51
283.15 K, 19650 kPa | 977.66
283.15 K, 19675 kPa | 977.74
283.15 K, 19700 kPa | 977.89
283.15 K, 19725 kPa | 977.97
283.15 K, 19750 kPa | 978.07
283.15 K, 19775 kPa | 978.19
283.15 K, 19800 kPa | 978.31
283.15 K, 19825 kPa | 978.42
283.15 K, 19850 kPa | 978.49
283.15 K, 19875 kPa | 978.64
283.15 K, 19900 kPa | 978.72
283.15 K, 19925 kPa | 978.84
283.15 K, 19950 kPa | 978.96
283.15 K, 19975 kPa | 979.04
283.15 K, 20000 kPa | 979.19
293.15 K, 6500 kPa | 813.14
293.15 K, 6525 kPa | 813.39
293.15 K, 6550 kPa | 813.83
293.15 K, 6575 kPa | 814.36
293.15 K, 6600 kPa | 814.85
293.15 K, 6625 kPa | 815.37
293.15 K, 6650 kPa | 815.85
293.15 K, 6675 kPa | 816.32
293.15 K, 6700 kPa | 816.75
293.15 K, 6725 kPa | 817.24
293.15 K, 6750 kPa | 817.7
293.15 K, 6775 kPa | 818.19
293.15 K, 6800 kPa | 818.69
293.15 K, 6825 kPa | 819.09
293.15 K, 6850 kPa | 819.56
293.15 K, 6875 kPa | 820.02
293.15 K, 6900 kPa | 820.51
293.15 K, 6925 kPa | 821
293.15 K, 6950 kPa | 821.45
293.15 K, 6975 kPa | 821.88
293.15 K, 7000 kPa | 822.38
293.15 K, 7025 kPa | 822.78
293.15 K, 7050 kPa | 823.25
293.15 K, 7075 kPa | 823.68
293.15 K, 7100 kPa | 824.12
293.15 K, 7125 kPa | 824.56
293.15 K, 7150 kPa | 824.97
293.15 K, 7175 kPa | 825.4
293.15 K, 7200 kPa | 825.75
293.15 K, 7225 kPa | 826.24
293.15 K, 7250 kPa | 826.63
293.15 K, 7275 kPa | 827.05
293.15 K, 7300 kPa | 827.52
293.15 K, 7325 kPa | 827.94
293.15 K, 7350 kPa | 828.35
293.15 K, 7375 kPa | 828.75
293.15 K, 7400 kPa | 829.18
293.15 K, 7425 kPa | 829.57
293.15 K, 7450 kPa | 829.96
293.15 K, 7475 kPa | 830.36
293.15 K, 7500 kPa | 830.75
293.15 K, 7525 kPa | 831.18
293.15 K, 7550 kPa | 831.58
293.15 K, 7575 kPa | 832.01
293.15 K, 7600 kPa | 832.39
293.15 K, 7625 kPa | 832.79
293.15 K, 7650 kPa | 833.16
293.15 K, 7675 kPa | 833.55
293.15 K, 7700 kPa | 833.94
293.15 K, 7725 kPa | 834.35
293.15 K, 7750 kPa | 834.76
293.15 K, 7775 kPa | 835.15
293.15 K, 7800 kPa | 835.53
293.15 K, 7825 kPa | 835.97
293.15 K, 7850 kPa | 836.36
293.15 K, 7875 kPa | 836.75
293.15 K, 7900 kPa | 837.14
293.15 K, 7925 kPa | 837.51
293.15 K, 7950 kPa | 837.87
293.15 K, 7975 kPa | 838.26
293.15 K, 8000 kPa | 838.63
293.15 K, 8025 kPa | 838.99
293.15 K, 8050 kPa | 839.37
293.15 K, 8075 kPa | 839.71
293.15 K, 8100 kPa | 840.15
293.15 K, 8125 kPa | 840.47
293.15 K, 8150 kPa | 840.87
293.15 K, 8175 kPa | 841.23
293.15 K, 8200 kPa | 841.62
293.15 K, 8225 kPa | 841.97
293.15 K, 8250 kPa | 842.39
293.15 K, 8275 kPa | 842.74
293.15 K, 8300 kPa | 843.12
293.15 K, 8325 kPa | 843.46
293.15 K, 8350 kPa | 843.86
293.15 K, 8375 kPa | 844.16
293.15 K, 8400 kPa | 844.56
293.15 K, 8425 kPa | 844.93
293.15 K, 8450 kPa | 845.3
293.15 K, 8475 kPa | 845.64
293.15 K, 8500 kPa | 845.98
293.15 K, 8525 kPa | 846.37
293.15 K, 8550 kPa | 846.75
293.15 K, 8575 kPa | 847.1

Conditions | speed of sound [m/s]
20010 kPa | 624.7
24930 kPa | 674.5
29990 kPa | 718.7
34940 kPa | 755.3
39990 kPa | 791.4
44940 kPa | 822.9
49970 kPa | 852.5
54900 kPa | 879.8
59940 kPa | 906
64950 kPa | 930.5
69950 kPa | 953.8
74980 kPa | 976
80020 kPa | 997.6
90010 kPa | 1037.3
100010 kPa | 1074.3
109950 kPa | 1108.7
120040 kPa | 1141.7
140050 kPa | 1201.9
160040 kPa | 1256.5
178780 kPa | 1303.9
